A word on the IC50: it is the concentration that inhibits the measured activity by half.

In the assay the target is T1, wild-type HIV-1 protease (Human immunodeficiency virus type 1 group M subtype B, UniProt P04585).
T1 construct: Escherichia coli expressed wild-type HIV-1 protease protein
Kind of assay: Assay for Inhibition of Microbial Expressed HIV Protease (peptide substrate cleavage, LC-MS/MS readout). The note with it: E. coli expressed wild-type HIV-1 protease, mean of at least two independent experiments, read-out: HIV Pr Enzyme HIV1 PR IC50. It is filed as biochemical. A digest of the protocol:
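E. coli-expressed wild-type HIV-1 protease ([…]) was preincubated with inhibitor 30 min at room temperature in pH 5.5 acetate buffer (100 mM NaCl, 0.1% BSA). Then 400 μM octapeptide substrate was added and reacted 1 h at 30 °C; inhibition came from LC-MS/MS product peak areas, mean of ≥2 experiments.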
Regarding `CC(C)CC1(c2ccccc2)NC(=N)N(Cc2ccc(Cl)c(C(=O)N3Cc4nccnc4C3)c2)C1=O` (centres unmarked) [Compound 365, 3-[4-chloro-3-(5,7-dihydro-6H-pyrrolo[3,4-b]pyrazin-6-ylcarbonyl)benzyl]-2-imino-5-(2-methylpropyl)-5-phenylimidazolidin-4-one], the IC50 came to 4.87 nM.

Consider `N=C1N[C@](CCCC(F)(F)F)(c2ccc(F)cc2)C(=O)N1Cc1ccc(C(F)(F)F)c(C(=O)N2Cc3cnc(-c4cccc(-n5nccn5)c4)nc3C2)c1` [Compound 95, (5R)-5-(4-fluorophenyl)-2-imino-3-[3-({2-[3-(2H-1,2,3-triazol-2-yl)phenyl]-5,7-dihydro-6H-pyrrolo-[3,4-d]pyrimidin-6-yl}carbonyl)-4-(trifluoromethyl)benzyl]-5-(4,4,4-trifluorobutyl)imidazolidin-4-one], for which the half-inhibitory concentration (IC50) is 19.4 nM.

Consider `N=C1N[C@](CCCC(F)(F)F)(c2ccc(F)cc2)C(=O)N1Cc1ccc(C(F)(F)F)c(C(=O)N2Cc3cnc(NC4CCCC4)nc3C2)c1` [Compound 71, (5R)-3-[3-{[2-(cyclopentylamino)-5,7-dihydro-6H-pyrrolo[3,4-d]pyrimidin-6-yl]carbonyl}-4-(trifluoromethyl)benzyl]-5-(4-fluorophenyl)-2-imino-5-(4,4,4-trifluorobutyl)imidazolidin-4-one], for which the IC50 was 9.19 nM.

On to `N=C1NC(c2ccccc2)(c2ccccc2)C(=O)N1Cc1cc(F)cc(C(=O)N2Cc3ccccc3C2)c1` [Compound 296, 3-[3-(1,3-dihydro-2H-isoindol-2-ylcarbonyl)-5-fluorobenzyl]-2-imino-5,5-diphenylimidazolidin-4-one], for which the IC50 is 40.3 nM.

As to `CN1CCN(C(=O)c2cccc(CN3C(=N)NC(c4ccccc4)(c4ccccc4)C3=O)c2)CC1=O` [Compound 358, 4-({3-[(2-imino-5-oxo-4,4-diphenylimidazolidin-1-yl)methyl]phenyl}carbonyl)-1-methylpiperazin-2-one], the half-inhibitory concentration (IC50) was 93.6 nM.

Consider `CC(C)CCC1(c2ccc(F)cc2)NC(=N)N(Cc2ccc(C(F)(F)F)c(C(=O)N3CC[C@@]4(c5ccccc5)NOC[C@H]4C3)c2)C1=O` (stereo partly drawn) [Compound 163, 5-(4-fluorophenyl)-2-imino-5-(3-methylbutyl)-3-[3-{[(3aS,7aR)-7a-phenylhexahydro-isoxazolo[4,3-c]pyridin-5(3H)-yl]carbonyl}-4-(trifluoromethyl)benzyl] imidazolidin-4-one], for which the IC50 amounted to 33.3 nM.

On to `N=C1NC(c2ccccc2)(c2ccccc2)C(=O)N1Cc1cccc(C(=O)N2Cc3cncnc3C2)c1` [Compound 310, 3-[3-(5,7-dihydro-6H-pyrrolo[3,4-d]pyrimidin-6-ylcarbonyl)benzyl]-2-imino-5,5-diphenylimidazolidin-4-one], for which the IC50 worked out at 51.7 nM.

For the compound `N=C1NC(c2ccc(F)cc2)(c2ccc(F)cc2)C(=O)N1Cc1ccc(F)c(C(=O)N2Cc3nccnc3C2)c1` [Compound 382, 3-[3-(5,7-dihydro-6H-pyrrolo[3,4-b]pyrazin-6-ylcarbonyl)-4-fluorobenzyl]-5,5-bis(4-fluorophenyl)-2-iminoimidazolidin-4-one], the IC50 was determined as 13.1 nM.

For `CC(C)CC1(c2ccccc2)NC(=N)N(Cc2cccc(C(=O)N3Cc4cncnc4C3)c2)C1=O` (centres unmarked) [Compound 253, 3-[3-(5,7-dihydro-6H-pyrrolo[3,4-d]pyrimidin-6-ylcarbonyl)benzyl]-2-imino-5-(2-methylpropyl)-5-phenylimidazolidin-4-one], the IC50 stood at 20.1 nM.

Take `CCCC1(c2ccccc2)NC(=N)N(Cc2cccc(C(=O)N3Cc4cnc(C)nc4C3)c2)C1=O` (centres unmarked) [Compound 345, 2-imino-3-{3-[(2-methyl-5,7-dihydro-6H-pyrrolo[3,4-d]pyrimidin-6-yl)carbonyl]benzyl}-5-phenyl-5-propylimidazolidin-4-one]: the IC50 came out at 81.9 nM.

`COC(=O)Nc1ncc2c(n1)CN(C(=O)c1cccc(CN3C(=N)NC(c4ccccc4)(c4ccccc4)C3=O)c1)C2` [Compound 190, methyl [6-({3-[(2-imino-5-oxo-4,4-diphenylimidazolidin-1-yl)methyl]phenyl}carbonyl)-6,7-dihydro-5H-pyrrolo[3,4-d]pyrimidin-2-yl]carbamate]: the IC50 turned out to be 3.86 nM.

These data come from patent US20200069691A1, “HETEROCYCLIC COMPOUNDS AS HIV PROTEASE INHIBITORS” (Merck Sharp & Dohme Corp., priority 2016, published 2020).
